Laboratory results: patent publication US10556936B2, “Immunogenic proteins and fragments thereof from allergenic mites” (ALK-ABELLÓ A/S, priority 2016, dated 2020)

System: HDM-specific T cells expanded from PBMCs of HDM-allergic individuals
Assay: T cell reactivity of peptides: IFN/IL-5 ELISPOT on in vitro expanded HDM-specific T cells
Format: cell-based, human
Details: for SFC/donor: individual peptides 10 μg/mL; for % responder: percentage of donors that produced a response against the peptide, 10 μg/mL
Experimental: Each sequence of an “L” cluster was aligned separately using the MEGA software tool with ClustalW. Fifteen-mer peptides overlapping by 10 amino acids were generated and the last 15-mer peptide was added when the sequence length was not divisible by 5, 14,783 unique peptides remained.
HLA class II binding predictions optimized for global coverage were performed for the seven class II alleles (HLA-DRB1*03:01, HLA-DRB1*07:01, HLA-DRB1*15:01, HLA-DRB3*01:01, HLA-DRB3*02:02, HLA-DRB4*01:01 and HLA-DRB5*01:01) using the standalone version of the IEDB class II binding prediction tool. The median consensus percentile rank was estimated from the consensus percentile ranks for the seven alleles. Further, peptides with more than ten overlapping amino acids, which appeared because several occurrences of some sequence regions were repeated multiple times in the same sequence, were eliminated (e.g. “[…]” was repeated seven times in one sequence.) Variant peptides were also removed, retaining the better peptide based on the median consensus percentile rank and conservation among the sequences within its respective cluster. Peptides with median consensus percentile rank ≤10.0 and conserved in ≥35% of sequences in the same cluster were finally selected, also including additional selected peptides chosen to maximize DRB1 allele coverage, for a grand total of 2,589 peptides.
Peptides were purchased from Mimotopes (Clayton, Victoria, Australia) or A and A (San Diego, Calif.) as crude material on a small (1-mg) scale. Individual peptides were resuspended in DMSO at a final concentration of 40 mg/mL. Peptide “megapools” of 30-65 peptides/pool were generated. Following lyophilization, each pool was reconstituted in DMSO so that each peptide was present at a concentration of 4 mg/mL. To facilitate deconvolution of positive megapools, each megapool was further broken down in 2-6 “mesopools” (259 mesopools in total), each containing 8-14 peptides. Each mesopool was then deconvoluted to identify individual positive peptides. To avoid dimerization and polymerization of peptides by intra- and intermolecular disulfide bond formation between cysteine residues, this amino acid were in some instances substituted by a serine residue in the peptides. Such peptides are herein marked with an asterisk (*).
PBMCs from European HDM-allergic individuals were recruited in the Copenhagen region (defined by clinical history of allergy to house dust mite and specific IgE to group 1 and group 2 major allergens from Der p and/or Der f and with measured specific IgE (CAP) >0.7 kU/L towards Der p/f 1 or Der p/f 2. In addition, PBMCs from 10 US HDM-allergic individuals were recruited in San Diego (defined by Der p extract IgE titers greater than 0.35 kUA/L). PBMCs were isolated from whole blood by density gradient centrifugation according to manufacturers' instructions (Ficoll-Hypaque, Amersham Biosciences, Uppsala, Sweden). Der p- and Der f-specific extract IgE titers were determined using the ImmunoCAP system (Thermo Fisher, Uppsala, Sweden). In a separate series of experiments, pooled plasma from 10 European and 10 American HDM atopic individuals from the San Diego region, respectively, was utilized to run 2D immunoblots to elucidate IgE and IgG reactivity towards the proteins, which had at least one peptide with positive T cell response.
HDM-specific T cells were expanded in vitro. Briefly, PBMCs from HDM-allergic individuals were stimulated with HDM extract (5 μg/mL) and expanded over 14-17 days with IL-2 (added every 3 days). Cells were harvested on day 14, restimulated with HDM extract (5 μg/mL), individual peptides (10 μg/mL) or peptide pools (5 μg/mL) and screened for […]/IL-5-production by ELISPOT. Criteria for positivity were 100 or 20 spot forming cells (SFCs) per 10^6 PBMCs for peptide pools or single peptides, respectively, p<0.05, and a stimulation index >2.

Row | Substance | SFC/donor [SFC/donor] | % responder [%]
1 | 45 (IMRILCCKSRKVAPC; Immunogenic fragment) [compound 45] | 4 | 5
2 | 46 (FNYLPVDVQEELRNT; Immunogenic fragment) [compound 46] | 7 | 5
3 | 47 (ELLKKKGIIPGIKVD; Immunogenic fragment) [compound 47] | 12 | 5
4 | 48 (EQYISGVILFDETVY; Immunogenic fragment) [compound 48] | 326 | 20
5 | 49 (KGIIPGIKVDTGVVT; Immunogenic fragment) [compound 49] | 83 | 10
6 | 50 (FIMLKPDAVQRGIVG; Immunogenic fragment) [compound 50] | 7 | 5
7 | 51 (RGIVGEIIRRFEAKG; Immunogenic fragment) [compound 51] | 5 | 5
8 | 52 (EIIRRFEAKGFKLVA; Immunogenic fragment) [compound 52] | 40 | 5
9 | 53 (FEAKGFKLVAMKFMM; Immunogenic fragment) [compound 53] | 7 | 5
10 | 54 (FKLVAMKFMMASEDL; Immunogenic fragment) [compound 54] | 6 | 5
11 | 55 (KFMMASEDLLKKHYA; Immunogenic fragment) [compound 55] | 5 | 5
12 | 56 (LKKHYADLAARPFFP; Immunogenic fragment) [compound 56] | 8 | 5
13 | 57 (WEGLNAVKTGRVMLG; Immunogenic fragment) [compound 57] | 5 | 5
14 | 58 (ITRLREAMGVMQHHD; Immunogenic fragment) [compound 58] | 8 | 5
15 | 59 (GTEKQHVAFNYAKML; Immunogenic fragment) [compound 59] | 80 | 5
16 | 60 (HVAFNYAKMLDSAML; Immunogenic fragment) [compound 60] | 75 | 5
17 | 61 (AMLQCRHVISESYRK; Immunogenic fragment) [compound 61] | 5 | 5
18 | 62 (RHIINESYKKLLPKS; Immunogenic fragment) [compound 62] | 4 | 5
19 | 63 (EFCPYLNISSCPSTE; Immunogenic fragment) [compound 63] | 7 | 10
20 | 64 (LYNPLGHRLINHTVR; Immunogenic fragment) [compound 64] | 6 | 5
21 | 65 (LISIPEFVRKIPGRK; Immunogenic fragment) [compound 65] | 6 | 5
22 | 66 (IVQEVHQQFDSFVGQ; Immunogenic fragment) [compound 66] | 6 | 5
23 | 67 (LMVHRRLLHDDYFGV; Immunogenic fragment) [compound 67] | 2 | 5
24 | 68 (DGHGIVIRGRHLLLL; Immunogenic fragment) [compound 68] | 24 | 5
25 | 69 (EPIISFTSIESNKQA; Immunogenic fragment) [compound 69] | 112 | 5
26 | 70 (HSKRYLLRLEHFYQR; Immunogenic fragment) [compound 70] | 5 | 5

Row | Substance | SFC/donor [SFC/donor] | % responder [%]
27 | 71 (LLRLEHFYQRFEDPS; Immunogenic fragment) [compound 71] | 8 | 5
28 | 72 (KRYLLRLEHFYQSNE; Immunogenic fragment) [compound 72] | 4 | 5
29 | 73 (TLEQWHSKRYLLRLE; Immunogenic fragment) [compound 73] | 4 | 5
30 | 74 (TVSLRHLFQSFEITA; Immunogenic fragment) [compound 74] | 25 | 5
31 | 75 (SLRHLFKSFEIIAVE; Immunogenic fragment) [compound 75] | 6 | 5
32 | 76 (FKSFEIIAVEELTLG; Immunogenic fragment) [compound 76] | 8 | 5
33 | 77 (ANQPISSLKNRLHYR; Immunogenic fragment) [compound 77] | 4 | 5
34 | 78 (ELTLGANQPISSLKN; Immunogenic fragment) [compound 78] | 6 | 5
35 | 79 (GNDLKNLSSKVLPNL; Immunogenic fragment) [compound 79] | 5 | 5
36 | 80 (NLSSKVLPNLNVPYC; Immunogenic fragment) [compound 80] | 4 | 5
37 | 81 (DDGNLISRALPHLGV; Immunogenic fragment) [compound 81] | 8 | 5
38 | 82 (YIGYKIEKHSKNLIQ; Immunogenic fragment) [compound 82] | 4 | 5
39 | 83 (DLSMTKLKRVRPSGF; Immunogenic fragment) [compound 83] | 4 | 5
40 | 84 (IHQLNDQVLRLKFID; Immunogenic fragment) [compound 84] | 3 | 5
41 | 85 (DQVLRLKFIDANQKR; Immunogenic fragment) [compound 85] | 222 | 20
42 | 86 (RLYSVELDGSHLIVR; Immunogenic fragment) [compound 86] | 3 | 5
43 | 87 (QSIFDINLAYMVYSD; Immunogenic fragment) [compound 87] | 69 | 20
44 | 88 (MVYSDQLIHVTSRLP; Immunogenic fragment) [compound 88] | 3 | 5
45 | 89 (RAPFRKNTNWKRYTQ; Immunogenic fragment) [compound 89] | 9 | 5
46 | 90 (TKLASGVFLFNSNAM; Immunogenic fragment) [compound 90] | 11 | 5
47 | 91 (GVFLFNSNAMDILTQ; Immunogenic fragment) [compound 91] | 9 | 5
48 | 92 (GPKPEQVVQQYHNLI; Immunogenic fragment) [compound 92] | 1 | 5
49 | 93 (QVVQQYHNLIGLPAM; Immunogenic fragment) [compound 93] | 11 | 10
50 | 94 (FTNLNTTYTRNRAVG; Immunogenic fragment) [compound 94] | 94 | 15
51 | 95 (TTYTRNRAVGIPMDV; Immunogenic fragment) [compound 95] | 77 | 15
52 | 96 (LPDFIRNVLHKNGQK; Immunogenic fragment) [compound 96] | 5 | 10
